# Reference: PubChem BioAssay (NCI)
#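 Tested at 5 concentrations; 48 h exposure; 96-well plates; endpoints linearly interpolated, else capped at highest concentration. The concentration for 50% growth inhibition is given as GI50. The concentration for full growth arrest is given as TGI.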
# What was measured:
# Assay in all cases: inhibition of tumour cell growth, NCI panel, 48 h
# [1] = tested on: NCI-H23 lung
# [2] = tested on: 786-0 renal
# [3] = tested on: DMS 273 small cell lung
# [4] = tested on: M19-MEL melanoma
# [5] = tested on: NCI-H460 lung
# [6] = tested on: SNB-75 CNS
# [7] = tested on: HT29 colon
# [8] = tested on: SN12C renal
# [9] = tested on: CAKI-1 renal
# [10] = tested on: EKVX NSCLC
# [11] = tested on: XF 498 CNS
# [12] = tested on: MALME-3M melanoma
# [13] = tested on: RPMI-8226 leukemia
# [14] = tested on: NCI-H226 lung
# [15] = tested on: M14 melanoma
# [16] = tested on: KM12 colon
# [17] = tested on: UO-31 renal
# [18] = tested on: UACC-62 melanoma
# [19] = tested on: HOP-62 NSCLC
# [20] = tested on: SW-620 colon
# [21] = tested on: COLO 205 colon
# [22] = tested on: SNB-78 CNS
# [23] = tested on: IGROV1 ovarian
# [24] = tested on: SK-MEL-2 melanoma
# [25] = tested on: MOLT-4 leukemia
# [26] = tested on: HCT-15 colon
# [27] = tested on: SK-MEL-5 melanoma
# [28] = tested on: SK-MEL-28 melanoma
# [29] = tested on: SNB-19 CNS
# [30] = tested on: SF-539 CNS
# [31] = tested on: DLD-1 colon
# [32] = tested on: U251 CNS
# [33] = tested on: K-562 leukemia
# [34] = tested on: SF-268 CNS
# [35] = tested on: A498 renal
# [36] = tested on: OVCAR-3 ovarian
# [37] = tested on: TK-10 renal
# [38] = tested on: UACC-257 melanoma
# [39] = tested on: A549 NSCLC
# [40] = tested on: CCRF-CEM leukemia
# [41] = tested on: ACHN renal
# [42] = tested on: LOX IMVI melanoma
# [43] = tested on: DMS 114 small cell lung
# [44] = tested on: HL-60(TB) leukemia
# [45] = tested on: SK-OV-3 ovarian
# [46] = tested on: LXFL 529 NSCLC
# [47] = tested on: NCI-H522 lung
# [48] = tested on: RXF 393 renal
# [49] = tested on: SF-295 CNS
# [50] = tested on: KM20L2 colon
# [51] = tested on: OVCAR-8 ovarian
# [52] = tested on: HCT-116 colon
# [53] = tested on: HCC-2998 colon
# [54] = tested on: HOP-92 NSCLC
# [55] = tested on: OVCAR-4 ovarian
# [56] = tested on: OVCAR-5 ovarian
# [57] = tested on: HOP-18 NSCLC
# [58] = tested on: SR leukemia
structure (smiles),measurement,setting,value
Cc1ccc([N+](=O)[O-])cc1NC(=O)c1cccc([N+](=O)[O-])c1O,TGI,[1],48.4 µM
same,TGI,[2],> 100 µM
same,TGI,[3],76.4 µM
same,TGI,[4],56 µM
same,TGI,[5],> 100 µM
same,TGI,[6],43.7 µM
same,TGI,[7],> 100 µM
same,TGI,[8],> 100 µM
same,TGI,[9],89.7 µM
same,TGI,[10],72 µM
same,TGI,[11],63.2 µM
same,TGI,[12],62.7 µM
same,TGI,[13],68.3 µM
same,TGI,[14],51.9 µM
same,TGI,[15],56.7 µM
same,TGI,[16],87.2 µM
same,TGI,[17],36.2 µM
same,TGI,[18],38.1 µM
same,TGI,[19],34 µM
same,TGI,[20],> 100 µM
same,TGI,[21],32.2 µM
same,TGI,[22],80.7 µM
same,TGI,[23],98.6 µM
same,TGI,[24],33.9 µM
same,TGI,[25],73 µM
same,TGI,[26],> 100 µM
same,TGI,[27],28.7 µM
same,TGI,[28],51.2 µM
same,TGI,[29],> 100 µM
same,TGI,[30],54.1 µM
same,TGI,[31],> 100 µM
same,TGI,[32],> 100 µM
same,TGI,[33],96.6 µM
same,TGI,[34],83.9 µM
same,TGI,[35],48 µM
same,TGI,[36],64.6 µM
same,TGI,[37],93.8 µM
same,TGI,[38],39.5 µM
same,TGI,[39],> 100 µM
same,TGI,[40],83.7 µM
same,TGI,[41],95.9 µM
same,TGI,[42],> 100 µM
same,TGI,[43],43.2 µM
same,TGI,[44],34.4 µM
same,TGI,[45],54.3 µM
same,TGI,[46],78.1 µM
same,TGI,[47],26.6 µM
same,TGI,[48],27.7 µM
same,TGI,[49],63.3 µM
same,TGI,[50],> 100 µM
same,TGI,[51],> 100 µM
NCCN.NCCN.O=C([O-])CCl.O=C([O-])CCl.[Co+3].[O-][Cl+3]([O-])([O-])[O-],GI50,[1],> 100 µM
same,TGI,[1],> 100 µM
same,GI50,[2],> 100 µM
same,TGI,[2],> 100 µM
same,GI50,[5],> 100 µM
same,TGI,[5],> 100 µM
same,GI50,[6],74.7 µM
same,TGI,[6],> 100 µM
same,GI50,[7],> 100 µM
same,TGI,[7],> 100 µM
same,GI50,[8],> 100 µM
same,TGI,[8],> 100 µM
same,GI50,[10],> 100 µM
same,TGI,[10],> 100 µM
same,GI50,[12],> 100 µM
same,TGI,[12],> 100 µM
same,GI50,[13],> 100 µM
same,TGI,[13],> 100 µM
same,GI50,[15],> 100 µM
same,TGI,[15],> 100 µM
same,GI50,[16],> 100 µM
same,TGI,[16],> 100 µM
same,GI50,[17],> 100 µM
same,TGI,[17],> 100 µM
same,GI50,[18],> 100 µM
same,TGI,[18],> 100 µM
same,GI50,[19],> 100 µM
same,TGI,[19],> 100 µM
same,GI50,[20],> 100 µM
same,TGI,[20],> 100 µM
same,GI50,[21],> 100 µM
same,TGI,[21],> 100 µM
same,GI50,[22],> 100 µM
same,TGI,[22],> 100 µM
same,GI50,[52],> 100 µM
same,TGI,[52],> 100 µM
same,GI50,[23],> 100 µM
same,TGI,[23],> 100 µM
same,GI50,[24],> 100 µM
same,TGI,[24],> 100 µM
same,GI50,[25],> 100 µM
same,TGI,[25],> 100 µM
same,GI50,[26],> 100 µM
same,TGI,[26],> 100 µM
same,GI50,[27],> 100 µM
same,TGI,[27],> 100 µM
same,GI50,[28],> 100 µM
same,TGI,[28],> 100 µM
same,GI50,[29],> 100 µM
same,TGI,[29],> 100 µM
same,GI50,[30],> 100 µM
same,TGI,[30],> 100 µM
same,GI50,[53],> 100 µM
same,TGI,[53],> 100 µM
same,GI50,[31],> 100 µM
same,TGI,[31],> 100 µM
same,GI50,[32],> 100 µM
same,TGI,[32],> 100 µM
same,GI50,[33],> 100 µM
same,TGI,[33],> 100 µM
same,GI50,[34],> 100 µM
same,TGI,[34],> 100 µM
same,GI50,[35],> 100 µM
same,TGI,[35],> 100 µM
same,GI50,[36],> 100 µM
same,TGI,[36],> 100 µM
same,GI50,[37],> 100 µM
same,TGI,[37],> 100 µM
same,GI50,[38],> 100 µM
same,TGI,[38],> 100 µM
same,GI50,[39],> 100 µM
same,TGI,[39],> 100 µM
same,GI50,[40],> 100 µM
same,TGI,[40],> 100 µM
same,GI50,[41],> 100 µM
same,TGI,[41],> 100 µM
same,GI50,[42],> 100 µM
same,TGI,[42],> 100 µM
same,GI50,[54],> 100 µM
same,TGI,[54],> 100 µM
same,GI50,[55],> 100 µM
same,TGI,[55],> 100 µM
same,GI50,[45],> 100 µM
same,TGI,[45],> 100 µM
same,GI50,[46],> 100 µM
same,TGI,[46],> 100 µM
same,GI50,[47],> 100 µM
same,TGI,[47],> 100 µM
same,GI50,[49],> 100 µM
same,TGI,[49],> 100 µM
same,GI50,[56],> 100 µM
same,TGI,[56],> 100 µM
same,GI50,[50],> 100 µM
same,TGI,[50],> 100 µM
same,GI50,[51],> 100 µM
same,TGI,[51],> 100 µM
COc1ccccc1C1c2cc3c(cc2OC(O)(CO)C1C(=O)O)OCO3 (stereo unspecified) (tested in a mixture with another compound),TGI,[1],> 100 µM
same,TGI,[2],> 100 µM
same,TGI,[3],> 100 µM
same,TGI,[4],> 100 µM
same,TGI,[5],> 100 µM
same,TGI,[6],> 100 µM
same,TGI,[7],> 100 µM
same,TGI,[8],> 100 µM
same,TGI,[10],> 100 µM
same,TGI,[12],> 100 µM
same,TGI,[13],> 100 µM
same,TGI,[14],> 100 µM
same,TGI,[15],> 100 µM
same,TGI,[16],> 100 µM
same,TGI,[17],> 100 µM
same,TGI,[18],> 100 µM
same,TGI,[19],> 100 µM
same,TGI,[20],> 100 µM
same,TGI,[21],> 100 µM
same,TGI,[22],> 100 µM
same,TGI,[52],> 100 µM
same,TGI,[23],> 100 µM
same,TGI,[24],> 100 µM
same,TGI,[25],> 100 µM
same,TGI,[26],> 100 µM
same,TGI,[27],> 100 µM
same,TGI,[28],> 100 µM
same,TGI,[30],> 100 µM
same,TGI,[53],> 100 µM
same,TGI,[31],> 100 µM
same,TGI,[32],> 100 µM
same,TGI,[33],> 100 µM
same,TGI,[57],> 100 µM
same,TGI,[34],> 100 µM
same,TGI,[35],> 100 µM
same,TGI,[36],> 100 µM
same,TGI,[37],> 100 µM
same,TGI,[38],> 100 µM
same,TGI,[39],> 100 µM
same,TGI,[40],> 100 µM
same,TGI,[41],> 100 µM
same,TGI,[42],> 100 µM
same,TGI,[43],> 100 µM
same,TGI,[54],> 100 µM
same,TGI,[55],> 100 µM
same,TGI,[44],> 100 µM
same,TGI,[45],> 100 µM
same,TGI,[46],> 100 µM
same,TGI,[48],> 100 µM
same,TGI,[58],> 100 µM
same,TGI,[49],> 100 µM
same,TGI,[56],> 100 µM
same,TGI,[50],> 100 µM
same,TGI,[51],> 100 µM
